Target: Cathepsin D (Homo sapiens, UniProt P07339)
Test: High Through-Put Fluorescence Assay
Settings: pH 3.7
Text: A fluorometric high through-put assay for inhibitor towards human liver cathepsin D from Calbiochem.

Cathepsin D, sequence (P07339 65-162 limits assumed): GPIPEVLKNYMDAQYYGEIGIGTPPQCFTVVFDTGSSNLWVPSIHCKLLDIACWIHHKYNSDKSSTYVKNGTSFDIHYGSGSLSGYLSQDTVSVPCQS
Cathepsin D, sequence (P07339 169-412 limits assumed): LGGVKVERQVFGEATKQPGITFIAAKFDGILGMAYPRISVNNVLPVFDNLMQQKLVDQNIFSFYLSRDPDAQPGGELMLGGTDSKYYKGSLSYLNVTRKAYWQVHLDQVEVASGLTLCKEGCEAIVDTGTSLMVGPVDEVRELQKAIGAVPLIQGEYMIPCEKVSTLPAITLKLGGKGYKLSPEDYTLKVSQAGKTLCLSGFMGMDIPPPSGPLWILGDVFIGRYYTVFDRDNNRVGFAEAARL

IC50	Ki	Structure (SMILES)
> 5000 nM		O=C(COc1ccc(Cl)c(Cl)c1)N[C@@H](c1ccccc1)[C@H](O)CN(CCc1ccc2c(c1)OCO2)C(=O)CCN1C(=O)c2ccccc2C1=O [(R)-EHO]
	> 5000 nM	O=C(COc1cc(Cl)c(Cl)cc1Cl)N[C@@H](c1ccccc1)[C@H](O)CN(CCc1ccc2c(c1)OCO2)C(=O)CCN1C(=O)c2ccccc2C1=O [(R)-EHD]
	171 nM	O=C(CCn1c(=O)oc2ccccc21)N[C@@H](c1ccccc1)C(O)CN(CCc1ccc2c(c1)OCO2)C(=O)CCc1ccc(Cl)c(Cl)c1 (stereo partly specified) [EFA]
19 nM	15 nM	O=C(COc1ccc(Cl)c(Cl)c1)N[C@@H](c1ccccc1)C(O)CN(CCc1ccc2c(c1)OCO2)C(=O)CCN1C(=O)c2ccccc2C1=O (stereo partly specified) [EHO]
20 nM	15 nM	O=C(COc1cccc(Cl)c1)N[C@@H](c1ccccc1)C(O)CN(CCc1ccc2c(c1)OCO2)C(=O)CCN1C(=O)c2ccccc2C1=O (stereo partly specified) [EHR]
14 nM	9 nM	O=C(COc1ccc(Cl)cc1Cl)N[C@@H](c1ccccc1)C(O)CN(CCc1ccc2c(c1)OCO2)C(=O)CCN1C(=O)c2ccccc2C1=O (stereo partly specified) [EHM]
	595 nM	CCCCCCC(=O)N(CCc1cccc(OC)c1)CC(O)[C@@H](NC(=O)Cn1c(O)csc1=S)c1ccccc1 (stereo partly specified) [FDB]
18 nM	14 nM	O=C(COc1ccc(Cl)c(Cl)c1)N[C@@H](c1ccccc1)C(O)CN(CCc1ccc(Cl)cc1Cl)C(=O)CCN1C(=O)c2ccccc2C1=O (stereo partly specified) [FHO]
	231 nM	O=C(CCn1c(=O)oc2ccccc21)N[C@@H](c1ccccc1)C(O)CN(CCc1ccc(Cl)cc1Cl)C(=O)CCN1C(=O)c2ccccc2C1=O (stereo partly specified) [FHA]
	111 nM	COc1ccc(C(=O)N[C@@H](c2ccccc2)C(O)CN(CCc2ccc3c(c2)OCO3)C(=O)CCN2C(=O)c3ccccc3C2=O)c(Cl)c1OC (stereo partly specified) [EHJ]
	73 nM	O=C(COc1cc(Cl)c(Cl)cc1Cl)N[C@@H](c1ccccc1)C(O)CN(CCc1ccc2c(c1)OCO2)C(=O)CCN1C(=O)c2ccccc2C1=O (stereo partly specified) [EHD]
64 nM	59 nM	COc1cc(Br)c(C(=O)N[C@@H](c2ccccc2)C(O)CN(CCc2ccc3c(c2)OCO3)C(=O)CCN2C(=O)c3ccccc3C2=O)cc1OC (stereo partly specified) [EHS]
229 nM	224 nM	Cc1ccc(CCN(CC(O)[C@@H](NC(=O)COc2cc(Cl)c(Cl)cc2Cl)c2ccccc2)C(=O)CCN2C(=O)c3ccccc3C2=O)cc1 (stereo partly specified) [UHD]
	131 nM	O=C(CCn1c(=O)oc2ccccc21)N[C@@H](c1ccccc1)C(O)CN(CCc1ccc2c(c1)OCO2)C(=O)CCN1C(=O)c2ccccc2C1=O (stereo partly specified) [EHA]
	356 nM	COc1cccc(CCN(CC(O)[C@@H](NC(=O)Cn2c(O)csc2=S)c2ccccc2)C(=O)NC2CCCCC2)c1 (stereo partly specified) [FBB]

Reference: BindingDB's records for doi:10.1016/s1074-5521(97)90073-9 (University of California Berkeley, 1997)
